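Assay format: 96-well plates, 48-hour exposure. The concentration for 50% growth inhibition is given as GI50. TGI: concentration producing complete growth inhibition.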
Experiments:
Experiment in all cases: growth of human tumour cells (NCI), 48 h
PC-3 prostate = test system: PC-3 prostate
MDA-N = test system: MDA-N
SNB-78 CNS = test system: SNB-78 CNS
M19-MEL melanoma = test system: M19-MEL melanoma
XF 498 CNS = test system: XF 498 CNS
DLD-1 colon = test system: DLD-1 colon
HOP-18 NSCLC = test system: HOP-18 NSCLC
DMS 273 small cell lung = test system: DMS 273 small cell lung
RXF-631 renal = test system: RXF-631 renal

Compound | GI50 (PC-3 prostate) [µM] | TGI (PC-3 prostate) [µM] | TGI (SNB-78 CNS) [µM] | TGI (M19-MEL melanoma) [µM] | TGI (DLD-1 colon) [µM] | TGI (DMS 273 small cell lung) [µM] | other results
C=CC1CC12C(=O)C1OC2(C)C2C(=O)c3ccccc3C(=O)C12 (configuration not stated) | 54.7 | > 100 |  |  |  |  | 
COc1cc2c(cc1OC)C13CCN4CC5=CCOC(CC(=O)O)C(C5CC41)C3N2 (configuration not stated) |  | > 100 |  |  |  |  | TGI (MDA-N): > 100 µM
Cc1ccc(S(=O)(=O)N(C)C)cc1[N+](=O)[O-] | > 100 | > 100 |  |  |  |  | 
COc1ccc(-c2nc(-c3nc4ccc(F)cc4[nH]3)cc3c2[nH]c2ccccc23)cc1 | 1.69 | 5.71 |  |  |  |  | 
Nc1nc2ncn(CCO)c2c(=O)[nH]1 |  |  | > 100 | > 100 | > 100 | > 100 | TGI (XF 498 CNS): > 100 µM; TGI (HOP-18 NSCLC): > 100 µM
COc1cc(OC)cc(N2CCC(c3c(N)nc(N)nc3Cl)CC2)c1 |  |  | > 100 | > 100 | > 100 | > 100 | TGI (RXF-631 renal): > 100 µM; TGI (XF 498 CNS): > 100 µM
COc1ccc(CC(=O)c2cc(OC)c(OC)cc2C)cc1OC |  |  | > 100 | > 100 | > 100 |  | TGI (XF 498 CNS): > 100 µM
CO/N=C(\c1ccccc1)c1cnn(-c2ccccc2)c1N | > 25 | > 25 |  |  |  |  | 
O=C1C(=O)c2ccc(Br)cc2-c2cc(Br)ccc21 | 20.3 | > 96.6 |  |  |  |  | 
CC(C)(C)c1nc2c(o1)C(=Nc1ccccc1)c1ccccc1C2=O |  |  | 43.7 | 2.32 | 38.1 | 11.3 | TGI (RXF-631 renal): 51.9 µM; TGI (XF 498 CNS): 9.66 µM; TGI (HOP-18 NSCLC): 20.9 µM
Cc1nc2sc(C(=O)Nc3cccc4ccccc34)c(N)c2cc1C(C)O (configuration not stated) | 0.285 | > 50 |  |  |  |  | 
CC(=O)[CH-]C(=O)c1ccccc1.CC(=O)[CH-]C(=O)c1ccccc1.[Nd+3].[OH-].[OH3+] |  |  |  | > 100 | > 100 |  | GI50 (M19-MEL melanoma): > 100 µM; GI50 (DLD-1 colon): > 100 µM; GI50 (HOP-18 NSCLC): > 100 µM; TGI (HOP-18 NSCLC): > 100 µM
Cc1c(Cl)ccc2c1NC(=O)C2(O)CC(=O)c1ccc(Cl)cc1Cl (configuration not stated) |  | > 50 | > 50 | > 50 |  | > 50 | TGI (RXF-631 renal): > 50 µM; TGI (MDA-N): > 50 µM; TGI (XF 498 CNS): > 50 µM
CN(C)CCC1(C2=CCCC2)CC/C(=C\c2ccc3c(c2)OCO3)C1=O (configuration not stated) |  |  | 35 | 32.6 | 38.3 |  | TGI (RXF-631 renal): 38.7 µM; TGI (HOP-18 NSCLC): 26.4 µM
COc1nc(OC)c2c(=O)oc(-c3ccccc3)cc2n1 |  |  | > 100 | > 100 |  | > 100 | 
Cc1ccc(NS(=O)(=O)c2ccc(-c3cnc(C4CC4)o3)cc2)cc1 | 3.27 | 16.3 |  |  |  |  | 
Brc1c[n+](Cc2ccc3ccccc3c2)cn1Cc1ccc2ccccc2c1 | 1.54 | 3.62 |  |  |  |  | 
CN(C(=O)c1ccc(F)cc1C(F)(F)F)C1CCN(c2nnc(-c3ccnn3C)c3ccccc23)CC1 | 33.3 | > 100 |  |  |  |  | 
COc1cc(-c2c3c(cn2S(=O)(=O)c2ccccc2)-c2nc(N)sc2CC3)cc(OC)c1OC | 0.549 | 25.8 |  |  |  |  | 
COc1ccc(C(CC(=O)c2ccccc2)C(C(=O)c2ccccc2)C(c2ccc(OC)cc2)C2C(=O)NC(=O)NC2=O)cc1 (configuration not stated) | 7.31 | > 100 |  |  |  |  | 

Compound | GI50 (PC-3 prostate) [µM] | TGI (PC-3 prostate) [µM] | TGI (SNB-78 CNS) [µM] | TGI (M19-MEL melanoma) [µM] | TGI (DLD-1 colon) [µM] | TGI (DMS 273 small cell lung) [µM] | other results
C=C1C(=O)O[C@H]2[C@H]1CC/C(COC(=O)OCCCCCOC(=O)OC/C1=C/CC[C@@]3(C)O[C@H]3[C@H]3OC(=O)C(=C)[C@@H]3CC1)=C\CC[C@@]1(C)O[C@@H]21 | 1.83 | 4.54 |  |  |  |  | 
CCCCCCC1CCC2CCCC(C)N12 (configuration not stated) |  |  |  | > 100 |  | > 100 | TGI (XF 498 CNS): 36.1 µM; TGI (HOP-18 NSCLC): > 100 µM
CC1=CC[C@@H]2[C@@H](CC[C@@]2(C)O)C(C)(C)[C@H]1CC[C@@H]1[C@@]2(C)CCC(=O)C(C)(C)O[C@@H]2CC[C@]1(C)O |  | > 100 |  |  |  |  | TGI (MDA-N): 57 µM
O=C1OCC(c2ccc(O)c(O)c2)=C1c1cc(O)c(O)c(O)c1 | 17.9 | 43.3 |  |  |  |  | 
CCCC[C@@H]1NC(=O)[C@H](CCCCN)NC(=O)[C@H](CCCNC(=N)N)NC(=O)[C@H](CC(C)C)NC(=O)[C@@H](NC(=O)[C@H](Cc2cccc(Cl)c2)NC(=O)[C@@H]2CCCN2C(=O)[C@@H](NC(C)=O)C(C)C)CCSSC[C@@H](C(=O)N[C@@H](CCCCN)C(=O)N2CCC[C@H]2C(=O)N2CCC[C@H]2C(=O)N[C@@H](CCC(=O)O)C(N)=O)NC(=O)[C@H](Cc2ccccc2)NC(=O)[C@H](CO)NC(=O)[C@H](C)NC(=O)[C@@H]2CCCN2C1=O | > 50 | > 50 |  |  |  |  | 
CC1(C)CCC(S(=O)(=O)c2ccc3c(c2)/C(=N\O)c2cc(S(=O)(=O)N4CCC(O)(c5cccc(C(F)(F)F)c5)CC4)ccc2-3)CC1 | 0.0238 | 0.0585 |  |  |  |  | 
CC(C)C1CN1CC(O)Cn1ccnc1[N+](=O)[O-] (configuration not stated) |  | > 100 |  |  |  |  | TGI (MDA-N): > 100 µM
O=S(=O)(Nc1ccc(-c2nc(-c3cccc(OCCN4CCOCC4)c3)c(-c3ccnc(Br)c3)[nH]2)cc1)c1ccccc1 | 2.4 | 36.6 |  |  |  |  | 
O=C(Cc1ccccc1)Oc1ccc2c(-c3ccccc3)c(C(=O)Nc3ccc(Cl)cc3)c(=O)oc2c1 |  |  | > 100 | > 100 | > 100 | > 100 | TGI (XF 498 CNS): > 100 µM
COc1ccc(-c2cc(C(=O)Nc3cccc(C(F)(F)F)c3)[nH]c(=S)n2)cc1 |  |  | > 100 | > 100 | > 100 | > 100 | TGI (XF 498 CNS): > 100 µM; TGI (HOP-18 NSCLC): > 100 µM
CC(NC(=O)c1ccccc1)C(=O)N(Cc1ccccc1)Cc1ccccc1 (configuration not stated) |  |  | 96.6 | 67.7 | > 100 | 47.1 | 
O=c1cc2n(c(=O)[nH]1)C1OC(C(O)C1O)[C@@H]2CCO (some centres not stated) |  |  | > 100 | > 100 | > 100 | > 100 | 
COC(=O)c1cnc2nc(N3CCOCC3)[nH]n2c1=O |  |  | > 100 | > 100 |  | > 100 | 
Nc1ccccc1C#C/C=C\C#Cc1ccc(F)cc1F | 10.7 | 56.5 |  |  |  |  | 
Cc1cc(N(CCCl)CCCl)ccc1C=Nc1cccnc1 | 22.9 | > 100 |  |  |  |  | 
CN(C)CCNC(=O)c1ccc2ccc3cccnc3c2n1 |  |  | > 34.8 |  | > 84.4 | 22.6 | TGI (HOP-18 NSCLC): > 100 µM
CCCCN(CC)C(=O)C(=O)C1C(=O)Nc2ccccc2S1=O (configuration not stated) |  |  | > 100 | > 100 | > 100 | > 100 | TGI (HOP-18 NSCLC): > 100 µM
Cc1cccc(C)c1NC(=O)CCC(=O)NNC(=O)c1cc(O)c2ccccc2c1 |  |  |  | > 100 | > 100 |  | TGI (XF 498 CNS): > 100 µM; TGI (HOP-18 NSCLC): > 100 µM
CCOc1ccc(NC(=O)Nc2cc(C(C)C)ccc2C)cc1 | 11.4 | > 58 |  |  |  |  | 
